From patent US20250288584A1, “COMBINATIONS COMPRISING POSITIVE ALLOSTERIC MODULATORS OR ORTHOSTERIC AGONISTS OF METABOTROPIC GLUTAMATERGIC RECEPTOR SUBTYPE 2 AND THEIR USE” (JANSSEN PHARMACEUTICA NV, priority 2014, published 2025)
“Also recorded” adds a separate entry of the source.

Tests used:
[1] = Minimal motor impairment (rotarod); assay type: in vivo, mice
Experimental: Acute MMI was assessed by a combination of direct observations of the animal for overt symptoms of the animal's neurological or muscular function. In mice, the rotarod procedure was used to disclose minimal muscular or neurological impairment. When a mouse is placed on a rod that rotates at a speed of 6 rpm, the animal can maintain its equilibrium for long periods of time. The animal was considered toxic if it fell off this rotating rod three times during a 1 min period.
In the determination of an ED50 or TD50 for each test compound, the first dose administered is usually the same dose as that used in a successful TPE determination.
If the initial dose employed was effective or toxic in more than 50% of animals, the next dose would be one-half that of the initial dose; if the initial dose was effective or toxic in less than 50% of animals, the following dose would be twice that of the initial dose. Third and fourth doses were selected to produce an evenly spaced dose response line. There should be a minimum of 4 points either including or lying between 0 and 100%.

[2] = test system: 6 Hz (44 mA) psychomotor seizures; assay: 6 Hz psychomotor seizure test, 44 mA (alone, combination with LEV, isobolographic study); assay type: in vivo, mice
Experimental: Test compounds were administered using an optimal fluid volume to body fluid ratio. Test compounds were administered to mice in a volume of 0.01 mL/g of body weight (White H. S., et al., General Principles: Experimental selection, quantification, and evaluation of antiepileptic drugs, in Antiepileptic Drugs, Fourth Edition, […], and B. S. Meldrum, Editors. 1995, Raven Press, Ltd.: New York, pp. 99-110). For subcutaneous (s.c.) administration, the test compounds were administered into a loose fold of skin along the back of the animal except compound 6-b, which was administered orally (p.o). […] The animals were maintained on an adequate diet (Prolab RMH 3000) and allowed free access to food and water, except during the short time they were removed from their cage for testing. Animals newly received in the laboratory were allowed sufficient time to correct for possible food and water restriction incurred during transit before being employed in testing. All mice were housed in plastic cages in specially constructed rooms with controlled humidity, exchange of air and controlled lighting (12 hours on-12 hours off). The animals were housed, fed, and handled in a manner consistent with the recommendations in the National Council Publication, “Guide for the Care and Use of Laboratory Animals”. In the determination of an ED50 or TD50 for each test compound, the first dose administered is usually the same dose as that used in a successful TPE determination. […] Third and fourth doses were selected to produce an evenly spaced dose response line. […] The 6 Hz seizure test is used as a model of pharmacoresistant limbic seizures. […] Focal seizures were induced in mice via corneal stimulation (6 Hz, 0.2 msec rectangular pulse, 3 sec duration; Barton et al. 2001). Mice were tested at either 32 mA or 44 mA. […] The seizures that arise from corneal stimulation in this assay are characterized by a minimal clonic phase followed by stereotyped automatistic behaviors including stun, forelimb clonus, twitching of the vibrissae, and Straub-tail. Animals not displaying these behaviors were considered protected. […] In addition to recording the efficacy and toxicity data for these compounds alone or in combination, both plasma and brain samples were collected from each of the groups for pharmacokinetic/pharmacokinetic analysis. No pharmacokinetic interaction was observed based on compound levels in the plasma and brain samples (data not shown). Isobolographic studies were conducted for the combined administration of Co. […] Studies were conducted according to previously described methods (Madsen et al. 2011). Initial ED50 values were determined for both Co. […] Co. […] Doses used were proportional to calculated ED50 values. […] Experimental treatment doses (see Table 4) were based on theoretical values and adjusted according to observed effects. Experimentally determined ED50 (+SEM) values for each fixed dose-ratio combination were compared to the theoretical values (t-test) for statistical purposes. […] Subsequently, the experimental combined doses were determined for the same paradigms in the 6 Hz seizure test (Table 4 below).

[3] = test system: 6 Hz (32 mA) psychomotor seizures; assay: 6 Hz psychomotor seizure test, 32 mA (incl. TPE determination); assay type: in vivo, mice
Experimental: Test compounds were administered using an optimal fluid volume to body fluid ratio. Test compounds were administered to mice in a volume of 0.01 mL/g of body weight (White H. S., et al., General Principles: Experimental selection, quantification, and evaluation of antiepileptic drugs, in Antiepileptic Drugs, Fourth Edition, […], and B. S. Meldrum, Editors. 1995, Raven Press, Ltd.: New York, pp. 99-110). For subcutaneous (s.c.) administration, the test compounds were administered into a loose fold of skin along the back of the animal except compound 6-b, which was administered orally (p.o). […] The animals were maintained on an adequate diet (Prolab RMH 3000) and allowed free access to food and water, except during the short time they were removed from their cage for testing. Animals newly received in the laboratory were allowed sufficient time to correct for possible food and water restriction incurred during transit before being employed in testing. All mice were housed in plastic cages in specially constructed rooms with controlled humidity, exchange of air and controlled lighting (12 hours on-12 hours off). The animals were housed, fed, and handled in a manner consistent with the recommendations in the National Council Publication, “Guide for the Care and Use of Laboratory Animals”. In the determination of an ED50 or TD50 for each test compound, the first dose administered is usually the same dose as that used in a successful TPE determination. […] Third and fourth doses were selected to produce an evenly spaced dose response line. […] TPE was determined using the 6 Hz (32 mA) assay. […] The 6 Hz seizure test is used as a model of pharmacoresistant limbic seizures. […] Focal seizures were induced in mice via corneal stimulation (6 Hz, 0.2 msec rectangular pulse, 3 sec duration; Barton et al. 2001). Mice were tested at either 32 mA or 44 mA. […] The seizures that arise from corneal stimulation in this assay are characterized by a minimal clonic phase followed by stereotyped automatistic behaviors including stun, forelimb clonus, twitching of the vibrissae, and Straub-tail. Animals not displaying these behaviors were considered protected.

human mGlu2 receptor = target: T1, human mGlu2 receptor (Homo sapiens, UniProt Q14416); assay: [35S]GTPγS binding assay, mGluR2 PAM; assay type: biochemical; settings: GTPγS assay; read-out: Emax
T1 construct: expressed in transfected cells; host or cells: CHO cells
T1 sequence (Q14416 19-872): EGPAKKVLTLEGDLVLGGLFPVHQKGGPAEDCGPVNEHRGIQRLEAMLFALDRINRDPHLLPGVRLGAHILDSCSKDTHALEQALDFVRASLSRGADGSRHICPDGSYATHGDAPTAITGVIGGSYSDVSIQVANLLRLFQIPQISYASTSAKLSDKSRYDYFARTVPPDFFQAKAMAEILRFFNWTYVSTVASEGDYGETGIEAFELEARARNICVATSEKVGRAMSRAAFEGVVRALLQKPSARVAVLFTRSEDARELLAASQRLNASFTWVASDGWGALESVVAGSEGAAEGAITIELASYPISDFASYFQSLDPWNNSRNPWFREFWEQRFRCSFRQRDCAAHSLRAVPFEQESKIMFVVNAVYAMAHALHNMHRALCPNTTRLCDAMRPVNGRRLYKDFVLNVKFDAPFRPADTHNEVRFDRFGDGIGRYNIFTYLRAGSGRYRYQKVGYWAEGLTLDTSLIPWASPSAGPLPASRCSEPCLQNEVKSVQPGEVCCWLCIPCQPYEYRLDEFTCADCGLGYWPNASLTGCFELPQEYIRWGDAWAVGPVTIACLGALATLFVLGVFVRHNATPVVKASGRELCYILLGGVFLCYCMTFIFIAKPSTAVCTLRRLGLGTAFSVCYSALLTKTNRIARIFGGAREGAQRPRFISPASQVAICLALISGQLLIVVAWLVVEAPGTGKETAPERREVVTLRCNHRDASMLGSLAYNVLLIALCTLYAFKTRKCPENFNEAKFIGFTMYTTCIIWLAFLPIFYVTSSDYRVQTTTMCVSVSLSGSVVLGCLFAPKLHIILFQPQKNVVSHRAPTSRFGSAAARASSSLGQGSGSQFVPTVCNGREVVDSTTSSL
Experimental: The [^35S]GTPγS binding assay is a functional membrane-based assay used to study G-protein coupled receptor (GPCR) function whereby incorporation of a non-hydrolysable form of GTP, [^35S]GTPγS (guanosine 5′-triphosphate, labelled with […] ^35S), is measured.
Cells were then collected by scraping in PBS and cell suspension was centrifuged (10 min at 4000 RPM in benchtop centrifuge). Supernatant was discarded and pellet gently resuspended in 50 mM Tris-HCl, pH 7.4 by mixing with a vortex and pipetting up and down. The suspension was centrifuged at 16,000 RPM (Sorvall RC-5C plus rotor SS-34) for 10 minutes and the supernatant discarded. The pellet was homogenized in 5 mM Tris-HCl, pH 7.4 using an ultra-turrax homogenizer and centrifuged again (18,000 RPM, 20 min, 4° C.). The final pellet was resuspended in 50 mM Tris-HCl, pH 7.4 and stored at-80° C. in appropriate aliquots before use. Protein concentration was determined by the Bradford method (Bio-Rad, USA) with bovine serum albumin as standard.
Measurement of mGluR2 positive allosteric modulatory activity of test compounds was performed as follows. Test compounds and glutamate were diluted in assay buffer containing 10 mM HEPES acid, 10 mM HEPES salt, pH 7.4, 100 mM NaCl, 3 mM MgCl2 and 10 μM GDP. Human mGlu2 receptor-containing membranes were thawed on ice and diluted in assay buffer supplemented with 14 μg/ml saponin. Membranes were pre-incubated with compound alone or together with a predefined (˜EC20) concentration of glutamate (PAM assay) for 30 min at 30° C. After addition of [^35S] GTPγS (f.c. 0.1 nM), assay mixtures were shaken briefly and further incubated to allow [^35S] GTPγS incorporation on activation (30 minutes, 30° C.). Final assay mixtures contained 7 μg of membrane protein in 10 mM HEPES acid, 10 mM HEPES salt, pH 7.4, 100 mM NaCl, 3 mM MgCl2, 10 µM GDP and 2 μg/ml saponin. Total reaction volume was 200 μl. Reactions were terminated by rapid filtration through Unifilter-96 GF/B plates (Perkin Elmer, Massachusetts, USA) using a 96-well filtermate universal harvester. Filters were washed 6 times with ice-cold 10 mM NaH2PO4/10 mM Na2HPO4, pH 7.4. Filters were then air-dried, and 40 μl of liquid scintillation cocktail (Microscint-O) was added to each well. Membrane-bound radioactivity was counted in a Microplate Scintillation and Luminescence Counter from Perkin Elmer.
The concentration-response curves of representative compounds of the present invention-obtained in the presence of EC20 of mGluR2 agonist glutamate to determine positive allosteric modulation (PAM)—were generated using the Lexis software interface (developed at J&J). Data were calculated as % of the control glutamate response, defined as the maximal response that is generated upon addition of glutamate alone. Sigmoid concentration-response curves plotting these percentages versus the log concentration of the test compound were analyzed using non-linear regression analysis. The concentration producing half-maximal effect is then calculated as EC50. The pEC50 values below were calculated as the −log EC50, when the EC50 is expressed in M. Emax is defined as relative maximal effect (i.e. maximal % effect relative to the control glutamate response).

For `Cc1cc(-c2nc(CN3CCNCC3)no2)cc2c1C(=O)N(Cc1ccc(OC(F)(F)F)cc1)C2` [CAS 1092453-15-0, 2,3-dihydro-7-methyl-5-[3-(1-piperazinylmethyl)-1,2,4-oxadiazol-5-yl]-2-[[4-(trifluoromethoxy)phenyl]methyl]-1H-isoindol-1-one, reference compound], the “# rotarod motor impairment/# tested” value ([1]; 20 mg/kg s.c., 0.25 h, 32 mA group) was 0/4, the “# rotarod motor impairment/# tested” value ([1]; 20 mg/kg s.c., 0.5 h, 32 mA group) was 0/4 and the “# rotarod motor impairment/# tested” value ([1]; 20 mg/kg s.c., 1 h, 32 mA group) was 0/4. For the same compound, the “# rotarod motor impairment/# tested” value ([1]; 20 mg/kg s.c., 2 h, 32 mA group) was 0/4, the “# rotarod motor impairment/# tested” value ([1]; 20 mg/kg s.c., 4 h, 32 mA group) was 0/4 and the “# rotarod motor impairment/# tested” value ([1]; 40 mg/kg s.c., 0.25 h, 32 mA group) was 0/4. For the same compound, the “# rotarod motor impairment/# tested” value ([1]; 40 mg/kg s.c., 0.5 h, 32 mA group) was 0/4, the “# rotarod motor impairment/# tested” value ([1]; 40 mg/kg s.c., 1 h, 32 mA group) was 0/4 and the “# rotarod motor impairment/# tested” value ([1]; 40 mg/kg s.c., 2 h, 32 mA group) was 0/4. For the same compound, the “# rotarod motor impairment/# tested” value ([1]; 40 mg/kg s.c., 4 h, 32 mA group) was 0/4, the “# rotarod motor impairment/# tested” value ([1]; 80 mg/kg s.c., 0.25 h, 32 mA group) was 0/4 and the “# rotarod motor impairment/# tested” value ([1]; 80 mg/kg s.c., 0.5 h, 32 mA group) was 0/4. For the same compound, the “# rotarod motor impairment/# tested” value ([1]; 80 mg/kg s.c., 1 h, 32 mA group) was 1/4, the “activity in the 6 Hz 44 mA test” value ([2]; result in words) was “did not show activity” and the “pharmacodynamic interaction with LEV in the 6 Hz model” value ([2]; result in words) was “did not display synergy”. For the same compound, the “# protected/# tested” value ([3]; 20 mg/kg s.c., 0.25 h) was 1/4, the “# protected/# tested” value ([3]; 20 mg/kg s.c., 0.5 h) was 0/4 and the “# protected/# tested” value ([3]; 20 mg/kg s.c., 1 h) was 1/4. The “# protected/# tested” value ([3]; 20 mg/kg s.c., 2 h) was 0/4, the “# protected/# tested” value ([3]; 20 mg/kg s.c., 4 h) was 0/4 and the “# protected/# tested” value ([3]; 40 mg/kg s.c., 0.25 h) was 1/4. The “# protected/# tested” value ([3]; 40 mg/kg s.c., 0.5 h) was 1/4, the “# protected/# tested” value ([3]; 40 mg/kg s.c., 1 h) was 1/4 and the “# protected/# tested” value ([3]; 40 mg/kg s.c., 2 h) was 0/4. The “# protected/# tested” value ([3]; 40 mg/kg s.c., 4 h) was 0/4, the “# protected/# tested” value ([3]; 80 mg/kg s.c., 0.25 h) was 0/4 and the “# protected/# tested” value ([3]; 80 mg/kg s.c., 0.5 h) was 0/4. The “# protected/# tested” value ([3]; 80 mg/kg s.c., 1 h) was 1/4 and the “activity in the 6 Hz 32 mA test” value ([3]; result in words) was “Low activity; also recorded: did not show activity”.

For `Cc1cc(-c2nc(CN3CCNCC3)no2)cc2c1C(=O)N(Cc1ccc(OC(F)(F)F)cc1)C2` [[CAS 1092453-15-0]], the “# rotarod motor impairment/# tested” value ([1]; [CAS 1092453-15-0] 20 mg/kg, alone) was 0/8, the responders at 20 mg/kg ([2]; Mus musculus, 6 Hz (44 mA), [CAS 1092453-15-0] 20 mg/kg, alone, read-out: # protected/# tested (converted)) was 0% and the Emax (human mGlu2 receptor) was 197%.
